Measured values as given in PMC6332508, “A Promising PET Tracer for Imaging of α7 Nicotinic Acetylcholine Receptors in the Brain: Design, Synthesis, and in Vivo Evaluation of a Dibenzothiophene-Based Radioligand” (Molecules, 2015).
“And” between values parts separate entries of the source, which are not always exact repeats. Identical values can stand only once. Like-named read-outs stand apart in the source and are kept apart here.

Experiments:
human α7 nAChR = target: T1, human α7 nAChR (Homo sapiens, UniProt P36544); assay: Radioligand displacement at human α7 nAChR, [3H]methyllycaconitine, SH-SY5Y cells; assay type: binding; conditions: for Selectivity (Ki ratio) α7/α3β4: Ki hα3β4 divided by Ki hα7; for Selectivity (Ki ratio) α7/α4β2: Ki hα4β2 divided by Ki hα7
T1 construct: expressed in transfected cells; host or cells: SH-SY5Y
T1 sequence (P36544 23-502): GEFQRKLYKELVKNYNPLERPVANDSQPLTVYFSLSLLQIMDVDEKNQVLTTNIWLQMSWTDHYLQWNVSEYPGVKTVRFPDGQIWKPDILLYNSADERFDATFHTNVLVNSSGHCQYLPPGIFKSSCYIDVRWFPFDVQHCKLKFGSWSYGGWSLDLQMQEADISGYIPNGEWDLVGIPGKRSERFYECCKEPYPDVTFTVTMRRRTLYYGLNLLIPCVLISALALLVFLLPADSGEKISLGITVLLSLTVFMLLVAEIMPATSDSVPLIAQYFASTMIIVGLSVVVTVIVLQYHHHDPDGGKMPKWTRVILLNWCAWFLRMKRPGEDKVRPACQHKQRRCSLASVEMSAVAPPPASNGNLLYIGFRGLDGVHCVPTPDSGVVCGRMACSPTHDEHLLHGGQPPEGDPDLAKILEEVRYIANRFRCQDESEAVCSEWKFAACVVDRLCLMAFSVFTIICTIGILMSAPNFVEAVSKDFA

human α4β2 nAChR = target: T2, human α4β2 nAChR (Homo sapiens, UniProt P17787+P43681); assay: Radioligand displacement at human α4β2 nAChR, [3H]epibatidine, HEK293 cells; assay type: binding
T2 construct: expressed in transfected cells; host or cells: HEK293
T2 sequence (P43681 29-627 limits assumed): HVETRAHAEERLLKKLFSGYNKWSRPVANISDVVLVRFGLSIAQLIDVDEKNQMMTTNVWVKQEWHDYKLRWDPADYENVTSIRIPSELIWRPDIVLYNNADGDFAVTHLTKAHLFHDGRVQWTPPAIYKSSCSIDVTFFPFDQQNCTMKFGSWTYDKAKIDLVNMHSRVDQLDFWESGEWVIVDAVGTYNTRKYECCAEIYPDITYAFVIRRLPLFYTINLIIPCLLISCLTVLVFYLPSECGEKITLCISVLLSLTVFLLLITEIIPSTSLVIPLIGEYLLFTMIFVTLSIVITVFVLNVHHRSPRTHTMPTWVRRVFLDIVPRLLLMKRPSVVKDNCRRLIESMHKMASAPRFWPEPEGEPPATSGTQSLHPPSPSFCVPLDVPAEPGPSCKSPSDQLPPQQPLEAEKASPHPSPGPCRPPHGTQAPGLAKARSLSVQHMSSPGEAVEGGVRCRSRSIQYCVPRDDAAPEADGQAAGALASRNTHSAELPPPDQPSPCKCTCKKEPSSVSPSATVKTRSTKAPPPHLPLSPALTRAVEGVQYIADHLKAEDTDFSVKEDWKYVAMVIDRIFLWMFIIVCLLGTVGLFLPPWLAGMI
T2 sequence (P17787 26-502): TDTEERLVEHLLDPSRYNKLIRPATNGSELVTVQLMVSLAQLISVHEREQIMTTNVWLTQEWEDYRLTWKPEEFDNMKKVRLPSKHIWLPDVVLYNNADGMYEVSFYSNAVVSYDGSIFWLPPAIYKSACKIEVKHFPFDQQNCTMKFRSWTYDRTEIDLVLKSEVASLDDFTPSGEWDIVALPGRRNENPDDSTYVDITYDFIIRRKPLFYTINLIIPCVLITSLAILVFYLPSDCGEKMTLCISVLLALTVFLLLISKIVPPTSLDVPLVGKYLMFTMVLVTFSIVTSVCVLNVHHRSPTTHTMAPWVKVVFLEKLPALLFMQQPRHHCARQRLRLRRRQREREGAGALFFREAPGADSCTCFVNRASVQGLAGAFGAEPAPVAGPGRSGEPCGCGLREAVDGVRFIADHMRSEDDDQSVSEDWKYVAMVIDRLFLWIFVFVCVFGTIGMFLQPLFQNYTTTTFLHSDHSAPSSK
Protocol: (§1) The affinity of the test compounds for human α4β2 and α3β4 nAChR was determined as described above. In brief, HEK293 cells stably expressing human α4β2 or α3β4 nAChR [66] were cultured. […] Nonspecific binding was determined in the presence of 300 μM (−)-nicotine tartrate. Incubation of the samples, separation of free from receptor-bound radioligand, and data evaluation were performed as described above.

human α3β4 nAChR = target: T3, human α3β4 nAChR (Homo sapiens, UniProt P30926+P32297); assay: Radioligand displacement at human α3β4 nAChR, [3H]epibatidine, HEK293 cells; assay type: binding
T3 construct: expressed in transfected cells; host or cells: HEK293
T3 sequence (P32297 32-505): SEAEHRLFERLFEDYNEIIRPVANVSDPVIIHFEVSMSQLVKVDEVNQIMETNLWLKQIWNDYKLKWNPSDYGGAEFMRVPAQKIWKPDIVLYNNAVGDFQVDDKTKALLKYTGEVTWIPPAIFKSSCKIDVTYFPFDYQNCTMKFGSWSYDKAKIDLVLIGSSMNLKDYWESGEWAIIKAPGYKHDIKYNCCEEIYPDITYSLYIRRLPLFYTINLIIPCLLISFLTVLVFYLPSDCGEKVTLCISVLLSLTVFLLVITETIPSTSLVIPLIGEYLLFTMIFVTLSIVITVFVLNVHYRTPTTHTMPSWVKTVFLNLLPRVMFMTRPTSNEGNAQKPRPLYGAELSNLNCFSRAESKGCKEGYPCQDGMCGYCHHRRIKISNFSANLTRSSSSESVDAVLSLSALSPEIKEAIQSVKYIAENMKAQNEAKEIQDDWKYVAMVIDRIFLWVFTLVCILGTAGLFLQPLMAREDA
T3 sequence (P30926 22-498): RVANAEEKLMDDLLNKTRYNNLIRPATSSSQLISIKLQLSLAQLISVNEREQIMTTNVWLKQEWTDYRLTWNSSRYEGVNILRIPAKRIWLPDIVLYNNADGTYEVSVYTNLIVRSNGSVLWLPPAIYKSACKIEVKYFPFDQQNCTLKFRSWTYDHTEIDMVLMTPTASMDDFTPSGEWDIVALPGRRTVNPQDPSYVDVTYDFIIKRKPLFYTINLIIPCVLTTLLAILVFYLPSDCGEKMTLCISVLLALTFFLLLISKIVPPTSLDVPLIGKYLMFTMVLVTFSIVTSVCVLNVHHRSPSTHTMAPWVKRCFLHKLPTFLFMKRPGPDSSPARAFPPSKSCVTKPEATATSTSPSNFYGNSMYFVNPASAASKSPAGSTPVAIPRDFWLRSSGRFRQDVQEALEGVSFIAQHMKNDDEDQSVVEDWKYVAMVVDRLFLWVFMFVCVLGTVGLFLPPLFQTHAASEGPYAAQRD
Protocol: as §1

rat α6β2* nAChR = rat α6β2* nAChR (Rattus norvegicus, UniProt P12390+P43143); assay: [3H]epibatidine binding to antibody-immobilized native rat α6β2* nAChR from striatum; conditions: read-out: Affinity (Ki in nM) rα6β2*, immunoimmobilization with anti-rα6 antibody, [3H]epibatidine 0.1 nM
Sequence of rat α6β2* nAChR (P43143 31-493): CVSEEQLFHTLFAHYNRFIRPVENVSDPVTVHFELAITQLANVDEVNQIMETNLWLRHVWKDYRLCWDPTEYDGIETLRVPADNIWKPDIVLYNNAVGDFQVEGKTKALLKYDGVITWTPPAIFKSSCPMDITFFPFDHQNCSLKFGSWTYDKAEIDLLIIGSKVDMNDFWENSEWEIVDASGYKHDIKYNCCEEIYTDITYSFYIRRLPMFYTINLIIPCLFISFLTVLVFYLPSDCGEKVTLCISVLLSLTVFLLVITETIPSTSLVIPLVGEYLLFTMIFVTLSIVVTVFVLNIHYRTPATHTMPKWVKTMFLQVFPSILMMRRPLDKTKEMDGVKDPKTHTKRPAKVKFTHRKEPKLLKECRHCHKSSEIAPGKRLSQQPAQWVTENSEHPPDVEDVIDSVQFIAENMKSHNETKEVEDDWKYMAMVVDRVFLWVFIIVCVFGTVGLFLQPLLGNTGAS
Sequence of rat α6β2* nAChR (P12391 31-464, further chain): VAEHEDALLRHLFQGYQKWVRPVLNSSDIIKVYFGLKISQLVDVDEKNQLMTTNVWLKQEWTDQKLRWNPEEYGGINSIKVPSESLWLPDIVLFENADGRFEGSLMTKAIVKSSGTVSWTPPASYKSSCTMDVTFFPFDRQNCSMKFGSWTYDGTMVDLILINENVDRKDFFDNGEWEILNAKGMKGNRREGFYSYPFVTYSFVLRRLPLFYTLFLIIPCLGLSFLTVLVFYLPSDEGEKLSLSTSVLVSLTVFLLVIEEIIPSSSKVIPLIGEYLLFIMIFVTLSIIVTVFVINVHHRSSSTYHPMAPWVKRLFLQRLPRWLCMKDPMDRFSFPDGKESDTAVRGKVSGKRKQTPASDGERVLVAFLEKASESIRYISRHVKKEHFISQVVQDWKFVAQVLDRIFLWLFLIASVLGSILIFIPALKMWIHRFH
Sequence of rat α6β2* nAChR (P12390 25-500): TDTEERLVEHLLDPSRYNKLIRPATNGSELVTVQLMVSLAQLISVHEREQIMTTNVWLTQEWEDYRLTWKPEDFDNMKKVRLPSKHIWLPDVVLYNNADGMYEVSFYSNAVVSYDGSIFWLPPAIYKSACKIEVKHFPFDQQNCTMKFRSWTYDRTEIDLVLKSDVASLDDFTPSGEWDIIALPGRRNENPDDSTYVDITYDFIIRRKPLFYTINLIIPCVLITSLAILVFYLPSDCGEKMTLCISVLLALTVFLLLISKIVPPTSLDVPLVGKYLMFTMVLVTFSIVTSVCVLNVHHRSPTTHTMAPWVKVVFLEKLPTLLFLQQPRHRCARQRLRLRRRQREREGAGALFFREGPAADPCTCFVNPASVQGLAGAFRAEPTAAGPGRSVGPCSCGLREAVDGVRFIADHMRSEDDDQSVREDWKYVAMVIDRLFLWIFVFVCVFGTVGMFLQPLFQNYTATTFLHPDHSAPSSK
Protocol: The specificity of the anti-α6 antibody was tested as described. The receptors were prepared and immobilized as previously described by the subunit-specific antibody. […] Incubations were performed in a buffer containing 50 mM Tris-HCl, pH 7, 150 mM NaCl, 5 mM KCl, 1 mM MgCl2, 2.5 mM CaCl2, 2 mg∙mL^−1 BSA, and 0.05% Tween 20. Specific ligand binding was defined as total binding minus the binding in the presence of 100 nM (±)-epibatidine dihydrochloride hydrate.
The experimental data obtained from the binding experiments were analyzed by means of a non-linear least square procedure using the LIGAND program. The Ki values of the test compounds were also determined by means of the LIGAND program by simultaneously fitting the data obtained from three to five independent saturation and competition binding experiments.

human 5-HT3 receptor = target: T4, human 5-HT3 receptor (Homo sapiens, UniProt P46098); assay: Radioligand binding at human 5-HT3 receptor, [3H]GR65630 (Eurofins Panlabs); conditions: read-out: 5-HT3 percentage of inhibition
T4 construct: host or cells: HEK-293
T4 sequence (P46098 24-478): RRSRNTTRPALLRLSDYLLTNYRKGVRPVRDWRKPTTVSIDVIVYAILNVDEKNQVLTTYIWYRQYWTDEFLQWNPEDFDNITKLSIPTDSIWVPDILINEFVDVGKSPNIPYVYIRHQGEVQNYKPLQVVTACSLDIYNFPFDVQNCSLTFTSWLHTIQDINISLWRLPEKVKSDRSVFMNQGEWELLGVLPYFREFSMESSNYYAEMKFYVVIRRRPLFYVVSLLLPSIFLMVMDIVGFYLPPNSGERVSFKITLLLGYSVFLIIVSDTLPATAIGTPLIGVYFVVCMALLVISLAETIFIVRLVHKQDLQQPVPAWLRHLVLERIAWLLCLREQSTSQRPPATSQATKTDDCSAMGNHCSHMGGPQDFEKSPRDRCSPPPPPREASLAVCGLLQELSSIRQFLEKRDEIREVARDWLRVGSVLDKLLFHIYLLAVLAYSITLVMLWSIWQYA

α7 nAChR [1] = conditions: [125I]α-bungarotoxin labelled rat cortical membranes; cited from earlier work
α3β4 nAChR = target: α3β4 nAChR; design: method as in PMID 24050653; conditions: rat receptor subtype; cited from earlier work
α4β2 nAChR = conditions: cited from earlier work
α7 nAChR [2] = target: T5, α7 nAChR (Macaca mulatta, UniProt Q866A2); assay: Comparative PET study in a rhesus monkey; assay type: in vivo, rhesus monkey (Macaca mulatta)
T5 construct: from tissue; host or cells: brain of a living rhesus monkey
T5 sequence (Q866A2 23-502): as the sequence (P36544 23-502) above, with N171S, R186K, V373M, V376A counted along it
Protocol: One male rhesus monkey (Macaca mulatta, 6 years old, body weight = 10 kg) underwent two PET imaging sessions with [^18F]10a and [^18F]10b, respectively. The scans were conducted 19 days apart. The monkey was initially sedated by intramuscular ketamine at 10 mg∙kg^−1 at ~2 h before the PET scan and anesthetized by 1.5%–3% isoflurane throughout the imaging session. PET scan was performed using a FOCUS-220 PET scanner (Siemens Preclinical Solutions, Knoxville, TN, USA). After a transmission scan, 167 MBq of [^18F]10a (specific activity of 362 GBq∙μmol^−1) or 185 MBq of [^18F]10b (specific activity of 159 GBq·μmol^−1) were administered intravenously. Emission data were acquired in list mode for 240 min. Raw list-mode PET data was histogrammed (frames of 6 × 30 s; 3 × 1 min; 2 × 2 min; 46 × 5 min to scan termination) and reconstructed with 2D filtered back projection, using a 0.15 cm^−1 Shepp filter and including corrections for scanner normalization, detector dead time, randoms, and radiation scatter and attenuation. The PET images were then registered to MR images, acquired with a Siemens 3 T Trio scanner, with a 6-parameter rigid body registration. The MR native space was then normalized using nonlinear affine registration to a high-resolution rhesus monkey atlas using BioImage Suite 3.01 (http://www.bioimagesuite.org/index.html). Time-activity curves were extracted by mapping atlas-defined regions to PET native space using the optimal transformation matrices calculated in the registration and normalization steps. Regions extracted included amygdala, caudate, cerebellum, cingulate, cortical regions (frontal, occipital, and temporal cortex), hippocampus, putamen, thalamus, and pons.

[3] = Affinity (Ki in nM) hα3β4, stably transfected HEK-293 cells, [3H]epibatidine
[4] = stably transfected HEK-293 cells, [3H]epibatidine, read-out: Affinity (Ki in nM) hα4β2
[5] = 0.1 μM concentration of test compound, [3H]GR65630 binding
[6] = stably transfected SH-SY5Y cells, [3H]methyllycaconitine, read-out: Affinity (Ki in nM) hα7
[7] = stably transfected HEK-293 cells, [3H]epibatidine, read-out: Affinity (Ki in nM) hα3β4

With `O=[N+]([O-])c1ccc2c(c1)-c1ccc(N3CCN4CCC3CC4)cc1S2(=O)=O` the melting point was 291 to 294 °C (dec.).

In the case of `O=S1(=O)c2ccccc2-c2ccc(N3CCN4CCC3CC4)cc21` [Compound 10], the Ki (human α7 nAChR) is reported as 0.51 ± 0.32 nM, the “Selectivity (Ki ratio) α7/α3β4” value (human α7 nAChR) is reported as 97 and the “Selectivity (Ki ratio) α7/α4β2” value (human α7 nAChR) is reported as 623. For the same compound, the Ki (human α4β2 nAChR) was 318 ± 43.3 nM, the Ki (human α3β4 nAChR; [3]) was 49.6 ± 14.7 nM and the Ki (rat α6β2* nAChR) was 517 ± 186 nM. The inhibition at 0.1 µM (human 5-HT3 receptor) was 35% and the melting point was 238.5 to 240 °C (dec.).

In the case of `O=S1(=O)c2cc(N3CCN4CCC3CC4)ccc2-c2cccc(F)c21` [Compound 10b, 3-(1,4-Diazabicyclo[3.2.2]nonan-4-yl)-6-fluorodibenzo[b,d]thiophene 5,5-dioxide], the Ki (human α4β2 nAChR; [4]) is reported as 211 ± 108 nM, the Ki (human α3β4 nAChR; [3]) is reported as 43 nM and 42.3 nM and the Ki (rat α6β2* nAChR) is reported as 435 ± 152 nM. For the same compound, the inhibition at 0.1 µM (human 5-HT3 receptor; [5]) was 42%, the Ki (α7 nAChR [1]) was 0.0004 µM and the Ki (α3β4 nAChR) was 0.709 µM.

With `O=S1(=O)c2ccccc2-c2cc(F)c(N3CCN4CCC3CC4)cc21` [Compound 10c, 3-(1,4-Diazabicyclo[3.2.2]nonan-4-yl)-2-fluorodibenzo[b,d]thiophene 5,5-dioxide] the “Selectivity (Ki ratio) α7/α3β4” value (human α7 nAChR) was 33, the “Selectivity (Ki ratio) α7/α4β2” value (human α7 nAChR) was 59 and the “fold lower affinity at the α7 subtype” value (human α7 nAChR; relative to 10a and 10b) was “about 10 fold”. The Ki (human α7 nAChR; [6]) was 8.53 ± 1.74 nM, the Ki (human α4β2 nAChR) was 507 ± 212 nM and the Ki (human α3β4 nAChR) was 279 ± 24.4 nM. For the same compound, the Ki (rat α6β2* nAChR) was 1390 ± 340 nM, the inhibition at 0.1 µM (human 5-HT3 receptor; [5]) was 26% and the melting point was 305 to 309 °C (dec.).

With `CN1C2CCCC1CN(c1ccc3c(c1)S(=O)(=O)c1ccc(F)cc1-3)C2` [Compound 12a] the “Selectivity (Ki ratio) α7/α3β4” value (human α7 nAChR) was 3, the “Selectivity (Ki ratio) α7/α4β2” value (human α7 nAChR) was 5 and the Ki (human α7 nAChR; [6]) was 30.9 ± 8.72 nM. The Ki (human α4β2 nAChR; [4]) was 141 ± 11.7 nM, the Ki (human α3β4 nAChR; [3]) was 96 ± 1.48 nM and the Ki (rat α6β2* nAChR) was 1180 ± 360 nM. The inhibition at 0.1 µM (human 5-HT3 receptor; [5]) was 10% and the melting point was 214 to 217 °C (dec.).

For `CN1C2CCCC1CN(c1ccc3c(c1)S(=O)(=O)c1c(F)cccc1-3)C2` [Compound 12b, 6-Fluoro-3-(9-methyl-3,9-diazabicyclo[3.3.1]nonan-3-yl)dibenzo[b,d]thiophene 5,5-dioxide], the “Selectivity (Ki ratio) α7/α3β4” value (human α7 nAChR) was 1, the “Selectivity (Ki ratio) α7/α4β2” value (human α7 nAChR) was 3 and the Ki (human α7 nAChR; [6]) was 105 ± 23.9 nM. For the same compound, the Ki (human α4β2 nAChR; [4]) was 301 ± 148 nM, the Ki (human α3β4 nAChR; [3]) was 94.8 ± 6.48 nM and the Ki (rat α6β2* nAChR) was 1190 ± 230 nM. For the same compound, the inhibition at 0.1 µM (human 5-HT3 receptor; [5]) was 11% and the melting point was 264 to 272 °C (dec.).

In the case of `CN1C2CCC1CN(c1ccc3c(c1)S(=O)(=O)c1c(F)cccc1-3)C2` [Compound 13b], the “Selectivity (Ki ratio) α7/α3β4” value (human α7 nAChR) is reported as 5, the “Selectivity (Ki ratio) α7/α4β2” value (human α7 nAChR) is reported as 10 and the Ki (human α7 nAChR; [6]) is reported as 40.9 ± 7.77 nM. The Ki (human α4β2 nAChR; [4]) was 426 ± 197 nM, the Ki (human α3β4 nAChR; [7]) was 224 ± 51.7 nM and the Ki (rat α6β2* nAChR) was 2260 ± 540 nM. The inhibition at 0.1 µM (human 5-HT3 receptor; [5]) was 10% and the melting point was 260.5 to 262.5 °C (dec.).

With `CN1CC2CCC(C1)N2c1ccc2c(c1)S(=O)(=O)c1c(F)cccc1-2` [Compound 14b] the “Selectivity (Ki ratio) α7/α3β4” value (human α7 nAChR) was >500, the “Selectivity (Ki ratio) α7/α4β2” value (human α7 nAChR) was >400 and the Ki (human α7 nAChR; [6]) was 9.26 ± 2.23 nM. For the same compound, the Ki (human α4β2 nAChR; [4]) was > 4000 nM, the Ki (human α3β4 nAChR; [7]) was > 5000 nM and the Ki (rat α6β2* nAChR) was 1450 ± 370 nM. For the same compound, the inhibition at 0.1 µM (human 5-HT3 receptor; [5]) was 4% and the melting point was 254.5 to 256 °C (dec.).

For `O=S1(=O)c2cc(N3CCN4CCC3CC4)ccc2-c2cccc(F)c21` [[^18F]10b, reference compound], the Ki (α4β2 nAChR) is given as 0.562 µM.

For `O=S1(=O)c2cc(N3CCN4CCC3CC4)ccc2-c2cccc([18F])c21` [[^18F]10b, reference compound], the “total volume of distribution VT” value (α7 nAChR [2]; cerebellum) was 26.8 mL∙cm^−3 and the “total volume of distribution VT” value (α7 nAChR [2]; thalamus) was 46.7 mL∙cm^−3.

For `Fc1ccc(-c2nnc(N3CCN4CCC3CC4)o2)cc1` [[^18F]NS10743], the Ki (α4β2 nAChR) is given as > 10 µM.
